Measured values taken from US4701440A (Hoechst Aktiengesellschaft, priority 1983, dated 1987).

Key:
[1] = cited from earlier work
[2] = biological test, activity compared with unmodified insulin

| Substance | biological activity compared with unmodified insulin [2] | also measured |
| --- | --- | --- |
| Porcine insulin-Arg^B31 OH |  | activity relative to unmodified porcine insulin ([1]; according to Chance, Excerpta Medica Int. Congress Series No. 231): 62% |
| insulin-Arg^B31 -Arg^B32 -OH | approximately the same level as that of unmodified insulin |  |
| insulin-Arg^B31 -OH | approximately the same level as that of unmodified insulin |  |
| proinsulin: proinsulin, insulin precursor containing the C-peptide |  | biological activity as fraction of that of insulin ([1]; intact proinsulin vs insulin): about 1/8 |
